# Patent publication US20040186085A1, “Composition containing a steroid and a glycol” (priority 2001, published 2004)
# What was measured:
# [1] = Solubility of DHEA at ambient temperature in different solvents (HPLC of supernatant); format: physicochemical; conditions: ambient temperature (25° C.), after 24 hours
# Method: The solubility of DHEA was evaluated at ambient temperature in different solvents. For this purpose the DHEA was dispersed in excess in the solvent in question, which had been brought to 60° C. beforehand. This temperature was maintained for one hour, with stirring using a magnetic bar. The suspension was subsequently returned to ambient temperature (25° C.). After 24 hours the suspension was centrifuged in order to remove the undissolved DHEA crystals. The supernatant was taken and checked for the absence of DHEA crystals by cross-polarized light microscopy. This supernatant was subsequently analysed by HPLC. The amount of DHEA detected is taken to correspond to its maximum solubility in the solvent in question.
# skin = conditions: rat; cited from earlier work
# human keratinocytes = conditions: cited from earlier work
# fibroblast = conditions: cited from earlier work
Compound,DHEA solubility ([1]; solvent Dipropylene glycol) [% by weight],DHEA solubility ([1]; solvent Glycerol) [% by weight],DHEA solubility ([1]; solvent PEG-400) [% by weight],DHEA solubility ([1]; solvent Propylene glycol) [% by weight],DHEA solubility ([1]; solvent Sorbitol) [% by weight],elastin content and collagen content of the skin (skin),thickness of the dermis (skin),viability of human keratinocytes (human keratinocytes),fibroblast proliferation (fibroblast)
"C[C@]12CC[C@H](O)CC1=CC[C@@H]1[C@@H]2CC[C@]2(C)C(=O)CC[C@@H]12 [DHEA, dehydroepiandrosterone]",10.48,0.15,3.67,5.88,0.05,–,–,–,–
C[C@]12CC[C@H](O)CC1=C[C@@H](O)[C@@H]1[C@@H]2CC[C@]2(C)C(=O)CC[C@@H]12 [7α-hydroxy-DHEA],–,–,–,–,–,increases,increases,increase,increase
